Results reported in PubChem BioAssay AID248 (DTP/NCI, 2004).
Several values for one entry are separate records, joined by “and”; a condition that tells them apart may be missing. Equal entries are not always repeated. Toxic doses and inconclusive results are not listed. No stated cut-off is given here; in the data, active means T/C of 150% or more; inactive means T/C below 125%.

Tested on: L1210 leukemia ip in BDF1 mice, survival T/C
Assay: NCI In Vivo Anticancer Drug Screen. Data for tumor model L1210 Leukemia (intraperitoneal) in B6D2F1 (BDF1) mice
Settings: endpoint: mean survival time, higher = longer survival
How it was run: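 Read-out is survival time, reported as the treated-group measurement over the vehicle-control measurement.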

[1] = dose: 100.0 mg/kg/injection, schedule: Q04DX003 (ip), vehicle: saline with Tween-80
[2] = dose: 100.0 mg/kg/injection, schedule: Q01DX009 (ip), vehicle: Klucel (hydroxypropylcellulose) (HPC)
[3] = dose: 100.0 mg/kg/injection, schedule: Q04DX003 (ip), vehicle: Klucel (hydroxypropylcellulose) (HPC)
[4] = dose: 200.0 mg/kg/injection, schedule: Q01DX009 (ip), vehicle: Klucel (hydroxypropylcellulose) (HPC)
[5] = dose: 200.0 mg/kg/injection, schedule: Q04DX003 (ip), vehicle: Klucel (hydroxypropylcellulose) (HPC)
[6] = dose: 400.0 mg/kg/injection, schedule: Q01DX009 (ip), vehicle: Klucel (hydroxypropylcellulose) (HPC)
[7] = dose: 400.0 mg/kg/injection, schedule: Q04DX003 (ip), vehicle: Klucel (hydroxypropylcellulose) (HPC)
[8] = dose: 50.0 mg/kg/injection, schedule: Q01DX009 (ip), vehicle: Klucel (hydroxypropylcellulose) (HPC)
[9] = dose: 100.0 mg/kg/injection, schedule: Q01DX001 (ip), vehicle: carboxymethylcellulose (CMC)
[10] = dose: 100.0 mg/kg/injection, schedule: Q04DX002 (ip), vehicle: Klucel (hydroxypropylcellulose) (HPC)
[11] = dose: 200.0 mg/kg/injection, schedule: Q04DX002 (ip), vehicle: Klucel (hydroxypropylcellulose) (HPC)
[12] = dose: 400.0 mg/kg/injection, schedule: Q04DX002 (ip), vehicle: Klucel (hydroxypropylcellulose) (HPC)

Measured: T/C

C[N+]1(Cc2ccccc2)C2CCC1C(=O)N(Cc1ccccc1)C2=O (configuration not stated)
inactive: dose: 75.0 mg/kg/injection, schedule: Q01DX001 (ip), vehicle: saline 103 % of control | dose: 150.0 mg/kg/injection, schedule: Q01DX001 (ip), vehicle: saline 116 % of control

NC1=NCCCN1
inactive: [1] 101 % of control

N#CC(N)=NC1CCC(C2CCC(N)CC2)CC1 (configuration not stated)
inactive: [2] 97 % of control | [3] 107 % of control | [4] 97 % of control | [5] 94 % of control | [6] 98 % of control | [7] 97 % of control

CCCCCCCCCCCCCCNCCCCCCCCCCCCCC
inactive: [8] 95 % of control | dose: 50.0 mg/kg/injection, schedule: Q04DX003 (ip), vehicle: Klucel (hydroxypropylcellulose) (HPC) 105 % of control | [2] 101 % of control | [3] 101 % of control | [5] 95 % of control

CCOC(=O)NNC(=O)O
inactive: dose: 50.0 mg/kg/injection, schedule: Q01DX001 (ip), vehicle: carboxymethylcellulose (CMC) 108 % of control | [9] 90 % of control

Cc1cc(=O)[nH]c2c1CCCCC2
inactive: dose: 100.0 mg/kg/injection, schedule: Q01DX001 (ip), vehicle: Klucel (hydroxypropylcellulose) (HPC) 98 % of control | dose: 200.0 mg/kg/injection, schedule: Q01DX001 (ip), vehicle: Klucel (hydroxypropylcellulose) (HPC) 96 % of control | dose: 400.0 mg/kg/injection, schedule: Q01DX001 (ip), vehicle: Klucel (hydroxypropylcellulose) (HPC) 96 % of control

CC(C)c1cc(O)ccc1N(C)C (tested in a mixture with another compound)
inactive: dose: 3.2 micrograms/kg/injection, schedule: Q01DX009 (ip), vehicle: saline 97 % of control | dose: 8.0 micrograms/kg/injection, schedule: Q01DX009 (ip), vehicle: saline 90 % of control | dose: 16.0 micrograms/kg/injection, schedule: Q01DX009 (ip), vehicle: saline 87 % of control | dose: 32.0 micrograms/kg/injection, schedule: Q01DX009 (ip), vehicle: saline 90 % of control

CCOC(=O)CC1c2nc3ccccc3cc2CN1C(=O)CCOCc1ccccc1 (configuration not stated)
inactive: dose: 10.0 mg/kg/injection, schedule: Q04DX003 (ip), vehicle: alcohol 92 % of control | dose: 20.0 mg/kg/injection, schedule: Q04DX003 (ip), vehicle: alcohol 92 % of control | dose: 40.0 mg/kg/injection, schedule: Q04DX003 (ip), vehicle: alcohol 100 % of control | dose: 80.0 mg/kg/injection, schedule: Q04DX003 (ip), vehicle: alcohol 96 % of control | dose: 160.0 mg/kg/injection, schedule: Q04DX003 (ip), vehicle: alcohol 89 % of control

O=C(O)Cc1cccc(=O)n1Cc1ccccc1
inactive: dose: 75.0 mg/kg/injection, schedule: Q04DX003 (ip), vehicle: Klucel (hydroxypropylcellulose) (HPC) 98 % of control | dose: 150.0 mg/kg/injection, schedule: Q04DX003 (ip), vehicle: Klucel (hydroxypropylcellulose) (HPC) 100 % of control | dose: 300.0 mg/kg/injection, schedule: Q04DX003 (ip), vehicle: Klucel (hydroxypropylcellulose) (HPC) 102 % of control

O=C(c1cccs1)c1c(C(F)(F)F)oc2c(c1=O)C=CC2
inactive: [9] 100 % of control | dose: 200.0 mg/kg/injection, schedule: Q01DX001 (ip), vehicle: carboxymethylcellulose (CMC) 87 % of control | dose: 400.0 mg/kg/injection, schedule: Q01DX001 (ip), vehicle: carboxymethylcellulose (CMC) 89 % of control

O=C(NC1CCCCC1)C(=S)NC1CCCCC1
inactive: [2] 93 % of control | [4] 101 % of control | [6] 98 % of control

COc1c([N+](=O)[O-])cc(C(=O)O)cc1[N+](=O)[O-]
inactive: [2] 104 % of control | [3] 99 % of control | [4] 98 % of control | [5] 97 % of control | [6] 98 % of control | [7] 97 % of control

O=[N+]([O-])c1ccc(O)c(N=Cc2ccccn2)c1
inactive: dose: 100.0 mg/kg/injection, schedule: Q01DX001 (ip), vehicle: saline 90 % of control | dose: 200.0 mg/kg/injection, schedule: Q01DX001 (ip), vehicle: saline 90 % of control | dose: 400.0 mg/kg/injection, schedule: Q01DX001 (ip), vehicle: saline 100 % of control

CCOC(=O)Oc1c(Cl)cc(S(=O)(=O)F)cc1Cl
inactive: dose: 100.0 mg/kg/injection, schedule: Q04DX003 (ip), vehicle: carboxymethylcellulose (CMC) 101 % of control | dose: 200.0 mg/kg/injection, schedule: Q04DX003 (ip), vehicle: carboxymethylcellulose (CMC) 108 % of control | dose: 400.0 mg/kg/injection, schedule: Q04DX003 (ip), vehicle: carboxymethylcellulose (CMC) 90 % of control

O=C1CCC(N2C(=O)C3C4CCC(CC4)C3C2=O)C(=O)N1 (configuration not stated)
inactive: [1] 104 % of control | dose: 200.0 mg/kg/injection, schedule: Q04DX003 (ip), vehicle: saline with Tween-80 96 % of control | dose: 400.0 mg/kg/injection, schedule: Q04DX003 (ip), vehicle: saline with Tween-80 100 % of control

O=C1c2cccc(Cl)c2C(=O)c2c(O)ccc(O)c21
inactive: dose: 100.0 mg/kg/injection, schedule: Q04DX002 (ip), vehicle: saline with Tween-80 87 % of control | dose: 200.0 mg/kg/injection, schedule: Q04DX002 (ip), vehicle: saline with Tween-80 97 % of control | dose: 400.0 mg/kg/injection, schedule: Q04DX002 (ip), vehicle: saline with Tween-80 97 % of control

COc1cc(C(=O)NNC(=O)C(=O)NNC(=O)c2cc(OC)c(OC)c(OC)c2)cc(OC)c1OC
inactive: dose: 6.25 mg/kg/injection, schedule: Q01DX009 (ip), vehicle: Klucel (hydroxypropylcellulose) (HPC) 95 % of control | dose: 12.5 mg/kg/injection, schedule: Q01DX009 (ip), vehicle: Klucel (hydroxypropylcellulose) (HPC) 96 % of control and 101 % of control | dose: 25.0 mg/kg/injection, schedule: Q01DX009 (ip), vehicle: Klucel (hydroxypropylcellulose) (HPC) 102 % of control | [8] 92 % of control and 98 % of control and 101 % of control | [2] 86 % of control

Cc1cccc(C)c1OC(=O)Nc1ccc(Cl)cc1
inactive: [10] 96 % of control | [11] 110 % of control | [12] 96 % of control

CCCCCCCCCCCC(=O)NC(=S)Nc1cc(OC)ccc1OC
inactive: [10] 104 % of control | [11] 111 % of control | [12] 93 % of control

CC1CCC2(OC1)OC1CC3C4CCC5CC(O)C(O)CC5(C)C4CCC3(C)C1C2C (configuration not stated)
inactive: dose: 50.0 mg/kg/injection, schedule: Q01DX009 (ip), vehicle: acetone 92 % of control | dose: 100.0 mg/kg/injection, schedule: Q01DX009 (ip), vehicle: acetone 92 % of control | dose: 100.0 mg/kg/injection, schedule: Q04DX003 (ip), vehicle: saline 92 % of control | dose: 200.0 mg/kg/injection, schedule: Q01DX009 (ip), vehicle: acetone 100 % of control | dose: 200.0 mg/kg/injection, schedule: Q04DX003 (ip), vehicle: saline 97 % of control | dose: 400.0 mg/kg/injection, schedule: Q01DX009 (ip), vehicle: acetone 94 % of control | dose: 400.0 mg/kg/injection, schedule: Q04DX003 (ip), vehicle: saline 94 % of control

O=C1c2ccccc2C(=O)N1Nc1ccccc1
inactive: dose: 5.0 mg/kg/injection, schedule: Q01DX001 (ip), vehicle: carboxymethylcellulose (CMC) 96 % of control | dose: 10.0 mg/kg/injection, schedule: Q01DX001 (ip), vehicle: carboxymethylcellulose (CMC) 113 % of control | dose: 20.0 mg/kg/injection, schedule: Q01DX001 (ip), vehicle: carboxymethylcellulose (CMC) 105 % of control | dose: 40.0 mg/kg/injection, schedule: Q01DX001 (ip), vehicle: carboxymethylcellulose (CMC) 111 % of control | dose: 80.0 mg/kg/injection, schedule: Q01DX001 (ip), vehicle: carboxymethylcellulose (CMC) 94 % of control | [10] 110 % of control | [11] 97 % of control | [12] 103 % of control

O=c1cc(C2CCCCC2)c2ccccc2[nH]1
inactive: dose: 100.0 mg/kg/injection, schedule: Q04DX003 (ip), vehicle: gum acacia 91 % of control | dose: 200.0 mg/kg/injection, schedule: Q04DX003 (ip), vehicle: gum acacia 97 % of control | dose: 400.0 mg/kg/injection, schedule: Q04DX003 (ip), vehicle: gum acacia 91 % of control

Oc1c(Cl)cc(Cl)cc1/C=C1\C=Nc2ccccc21
inactive: dose: 100.0 mg/kg/injection, schedule: Q04DX002 (ip), vehicle: saline 97 % of control | dose: 200.0 mg/kg/injection, schedule: Q04DX002 (ip), vehicle: saline 94 % of control | dose: 400.0 mg/kg/injection, schedule: Q04DX002 (ip), vehicle: saline 102 % of control
